Results from patent publication US10961278B2, “Vancomycin derivative, preparation method, pharmaceutical composition and use thereof” (SHANGHAI INSTITUTE OF MATERIA MEDICA, CHINESE ACADEMY OF …, priority 2016, dated 2021).
In brackets after ≈: the same amount, converted by molar mass. Entries after “also recorded” stand apart in the source; their conditions may differ. Where two headings read alike, the source gives them in different places.

Tests used:
[1] = system: vancomycin-middle resistant Staphylococcus aureus Mu50 strain; assay: In vitro antibacterial activity assay (MIC, CLSI dilution method); format: cell-based
[2] = system: vancomycin-sensitive Staphylococcus aureus Newman strain; assay: as above; format: cell-based; details: Staphylococcus aureus, S. aureus Newman, 37° C., 16 h
[3] = system: Staphylococcus aureus USA300 LAC strain (CA-MRSA); format: in vivo; details: for in vivo antibacterial activity against methicillin-resistant Staphylococcus aureus, comparison with positive controls: BALB/c mice, 7 mg/kg i.p., 10 days
[4] = In vivo pharmacokinetic assay in mice; details: for AUCINF_obs / AUClast / CL_obs / MRTINF_obs / T1/2 / VSS_obs: male CD-1 mice, intravenous single dose 5 mg/kg; for AUC(0-inf) / AUC(0-t) / MRT inf / half-life: male, CD-1, mouse, in vivo, iv, 5 mg/kg
in vivo = details: male, CD-1, mouse, iv, 5 mg/kg
[5] = male, CD-1, mouse, in vivo, iv, 5 mg/kg
[6] = system: HK-2 cells (human renal proximal tubular epithelial cells); assay: Kidney cytotoxicity assay (CCK8 cell viability); format: cell-based; details: HK-2 cells, 10, 50, 100 μM, 72 h
Description: (§1) Liver and kidney cell viability assays were performed using the Cell Activity Assay Kit CCK8 (Cell Counting Kit-8) method. HK-2 cells (human renal proximal tubular epithelial cells) and HL-7702 cells (human liver cells) in logarithmic growth phase were inoculated to a 96-well culture plate at a suitable density (about 5000 cells), at 100 μL per well. […] Three replicate wells were set for each concentration, and the physiological saline vehicle control well corresponding to each concentration and a well for cell-free zero-adjustment were set. After the treatment, 10 μL of CCK8 detection solution was added into each well, the incubation was performed at 37° C. for about 1.5 h. The optical density (OD value) at 450 nm was measured on a […] microplate reader. The OD value was converted to cell viability value according to the following equation: […] wherein, ODC represents the optical density obtained by different concentrations of the compounds to be tested, C represents the concentration of the compound, and ODC=0 represents the optical density obtained without addition of the compound to be tested.

[7] = system: HL-7702 cells (human liver cells); assay: Liver cytotoxicity assay (CCK8 cell viability); format: cell-based; details: HL-7702 cells, 10, 50, 100 μM, 72 h
Description: as §1

[8] = Staphylococcus aureus; S. aureus Mu50, 37° C., 16 h; read-out: MIC Mu50
[9] = female BALB/c mice, USA300 LAC retro-orbital, single dose 7 mg/kg intraperitoneally 1 h after infection, after 10 days
[10] = Staphylococcus aureus, 16 h, read-out: MIC Mu50

Structure (SMILES) | MIC [1, 8] | MIC [2] | survival rate ([3]; in vivo, ip, 7 mg/kg) | AUCINF_obs [4] | AUClast [4] | CL_obs [4] | MRTINF_obs [4] | T1/2 [4] | in vivo antibacterial activity against methicillin-resistant Staphylococcus aureus, comparison with positive controls [3] | survival rate [3, 9] | VSS_obs [5] | MIC [1, 10] | VSS_obs [4] | AUC(0-inf) [4] | AUC(0-t) [4] | MRT inf [4] | half-life [4] | in vivo antibacterial activity against methicillin-resistant Staphylococcus aureus, comparison with positive controls ([3]; 7 mg/kg) | other results
CCCCCCCCCCNCCN[C@@]1(C)C[C@H](O[C@H]2[C@H](Oc3c4cc5cc3Oc3ccc(cc3Cl)[C@@H](O)[C@@H](NC(=O)[C@@H](CC(C)C)NC)C(=O)N[C@@H](CC(N)=O)C(=O)N[C@H]5C(=O)N[C@H]3C(=O)N[C@H](C(=O)N[C@H](C(=O)O)c5cc(O)c(CNCP(=O)(O)O)c(O)c5-c5cc3ccc5O)[C@H](O)c3ccc(c(Cl)c3)O4)O[C@H](CO)[C@@H](O)[C@@H]2O)O[C@@H](C)[C@H]1O [Tela., telavancin, reference compound] | 1 µg/mL (≈ 0.57 µM) | < 0.0625 µg/mL | 93.3% | 17304 ± 5745 ng·h/mL | 17143 ± 5611 ng·h/mL | 5.1 ± 1.5 mL/min/kg | 1.71 ± 0.13 h | 1.13 ± 0.13 h | – | – | – | – | – | – | – | – | – | – | –
CN[C@H](CC(C)C)C(=O)N[C@H]1C(=O)N[C@@H](CC(N)=O)C(=O)N[C@H]2C(=O)N[C@H]3C(=O)N[C@H](C(=O)N[C@H](C(=O)O)c4cc(O)c(CNCCCNC(=O)[C@H](O)[C@@H](O)[C@H](O)[C@H](O)CO)c(O)c4-c4cc3ccc4O)[C@H](O)c3ccc(c(Cl)c3)Oc3cc2cc(c3OC2O[C@H](CO)C(O)C(O)[C@H]2O[C@@H]2CC(C)[C@@H](O)C(C)(NCc3ccc(-c4ccc(C(F)(F)F)cc4)cc3)C2)Oc2ccc(cc2Cl)[C@H]1O (some centres unmarked) [Van016] | – | – | – | – | – | – | – | – | better activity than vancomycin | 60.0% | 1.826 ± 0.334 L/kg | – | – | – | – | – | – | – | MIC ([1]; Staphylococcus aureus, 16 h, S. aureus Mu50, 37° C., read-out: MIC Mu50): 0.25 µg/mL (≈ 0.128 µM); MIC ([2]; NEWMAN): ≤ 0.0625 µg/mL; AUC(0-inf) (in vivo): 13400 ± 12700 ng·h/mL; AUC(0-t) (in vivo): 10700 ± 2060 ng·h/mL; MRT inf (in vivo): 4.79 ± 0.24 h; half-life (in vivo): 3.72 ± 0.7 h; CL_obs [5]: 6.4 ± 1.39 mL/min/kg
CN[C@H](CC(C)C)C(=O)N[C@H]1C(=O)N[C@@H](CC(N)=O)C(=O)N[C@H]2C(=O)N[C@@H]3C(=O)N[C@H](C(=O)N[C@H](C(=O)O)c4cc(O)c(CNC5C(O)OC(CO)[C@H](O)[C@@H]5O)c(O)c4-c4cc3ccc4O)[C@H](O)c3ccc(c(Cl)c3)Oc3cc2cc(c3O[C@@H]2O[C@H](CO)C(O)C(O)[C@H]2O[C@H]2CC(C)(NCc3ccc(-c4ccc(C(F)(F)F)cc4)cc3)[C@H](O)[C@H](C)O2)Oc2ccc(cc2Cl)[C@H]1O (some centres unmarked) [Van032] | – | ≤ 0.0625 µg/mL | – | – | – | 3.45 ± 0.40 mL/min/kg | – | – | better activity than vancomycin | 73.3% | – | ≤ 0.0625 µg/mL | 0.9 ± 0.18 L/kg | 24300 ± 2800 ng·h/mL | 20100 ± 1710 ng·h/mL | 4.41 ± 1.23 h | 3.45 ± 1.26 h | – | –
CN[C@H](CC(C)C)C(=O)N[C@H]1C(=O)N[C@@H](CC(N)=O)C(=O)N[C@H]2C(=O)N[C@H]3C(=O)N[C@H](C(=O)N[C@H](C(=O)O)c4cc(O)c(CNCCO[C@@H]5OC(CO)[C@H](O)C(O)C5O)c(O)c4-c4cc3ccc4O)[C@H](O)c3ccc(c(Cl)c3)Oc3cc2cc(c3OC2O[C@H](CO)C(O)C(O)[C@H]2O[C@@H]2CC(C)[C@@H](O)C(C)(NCc3ccc(-c4ccc(C(F)(F)F)cc4)cc3)C2)Oc2ccc(cc2Cl)[C@H]1O (some centres unmarked) [Van037] | – | ≤ 0.0625 µg/mL | – | – | – | 4.42 ± 1.42 mL/min/kg | – | – | – | 86.6% | – | 0.25 µg/mL (≈ 0.13 µM) | 1.077 ± 0.449 L/kg | 20000 ± 5490 ng·h/mL | 16600 ± 4960 ng·h/mL | 4.21 ± 2.08 h | 2.94 ± 1.39 h | better activity than vancomycin; also recorded: comparable activities with telavancin | toxicity in kidney cells [6]: toxicity less than vancomycin and comparable to telavancin; toxicity in liver cells [7]: less toxicity in liver cells than vancomycin and telavancin
CN[C@H](CC(C)C)C(=O)N[C@H]1C(=O)N[C@@H](CC(N)=O)C(=O)N[C@H]2C(=O)N[C@@H]3C(=O)N[C@H](C(=O)N[C@H](C(=O)O)c4cc(O)c(CNC5C(O)OC(CO)[C@H](O)[C@@H]5O)c(O)c4-c4cc3ccc4O)[C@H](O)c3ccc(c(Cl)c3)Oc3cc2cc(c3O[C@@H]2O[C@H](CO)C(O)C(O)[C@H]2O[C@H]2CC(C)(NCc3ccc(-c4ccc(Cl)cc4)cc3)[C@H](O)[C@H](C)O2)Oc2ccc(cc2Cl)[C@H]1O (some centres unmarked) [Van038] | – | ≤ 0.0625 µg/mL | – | – | – | 7.0 ± 1.38 mL/min/kg | – | – | – | 93.3% | – | 0.125 µg/mL (≈ 0.0679 µM) | 1.754 ± 0.38 L/kg | 12200 ± 2490 ng·h/mL | 12100 ± 2480 ng·h/mL | 4.18 ± 0.34 h | 3.81 ± 0.31 h | better activity than vancomycin; also recorded: comparable activities with telavancin | –
CN[C@H](CC(C)C)C(=O)N[C@H]1C(=O)N[C@@H](CC(N)=O)C(=O)N[C@H]2C(=O)N[C@H]3C(=O)N[C@H](C(=O)N[C@H](C(=O)O)c4cc(O)cc(O)c4-c4cc3ccc4O)[C@H](O)c3ccc(c(Cl)c3)Oc3cc2cc(c3O[C@@H]2O[C@H](CO)[C@@H](O)[C@H](O)[C@H]2O[C@H]2C[C@](C)(N)[C@H](O)[C@H](C)O2)Oc2ccc(cc2Cl)[C@H]1O [Vanco., vancomycin] | 8 µg/mL (≈ 5.52 µM) | 2 µg/mL (≈ 1.38 µM) | 6.6% | 1271 ± 347 ng·h/mL | 1242 ± 335 ng·h/mL | 68.7 ± 18 mL/min/kg | 0.790 ± 0.26 h | 0.597 ± 0.208 h | – | – | 3.076 ± 0.175 L/kg | – | – | – | – | – | – | – | –
